According to ChEMBL document CHEMBL1143744, “Modification of eukaryotic initiation factor 5A from Plasmodium vivax by a truncated deoxyhypusine synthase from Plasmodium falciparum: An enzyme with dual enzymatic properties” (Bioorg Med Chem, 2007):

Molecular target: T1, Deoxyhypusine synthase (Plasmodium falciparum, UniProt Q9GSW0)
T1 sequence (Q9GSW0 whole entry): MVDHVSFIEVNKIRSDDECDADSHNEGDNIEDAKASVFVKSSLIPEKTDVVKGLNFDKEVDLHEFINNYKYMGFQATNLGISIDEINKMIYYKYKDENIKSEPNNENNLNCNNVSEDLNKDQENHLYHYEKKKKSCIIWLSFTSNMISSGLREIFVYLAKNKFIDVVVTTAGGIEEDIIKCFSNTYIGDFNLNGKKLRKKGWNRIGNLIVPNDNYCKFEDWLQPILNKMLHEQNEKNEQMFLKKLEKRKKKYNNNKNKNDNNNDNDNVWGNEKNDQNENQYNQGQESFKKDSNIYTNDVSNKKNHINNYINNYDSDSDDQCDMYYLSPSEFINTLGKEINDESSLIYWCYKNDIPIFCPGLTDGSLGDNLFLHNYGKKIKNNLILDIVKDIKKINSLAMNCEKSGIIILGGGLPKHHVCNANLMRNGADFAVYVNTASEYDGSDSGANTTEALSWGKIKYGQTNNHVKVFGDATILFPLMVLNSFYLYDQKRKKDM
Assay: Inhibition of recombinant deoxyhypusine synthase in Plasmodium falciparum NF54

Row | Ki | SMILES
1 | 50 µM | NCCCCCCCN
2 | 0.1 µM | N=C(N)NCCCCCCCN
